Measured values published in patent US5023273A, “6-oxoprostaglandin E derivatives, process for their production and their pharmaceutical use” (Schering Aktiengesellschaft, priority 1987, dated 1991).

What was measured:
Thrombocyte [1] = test: Thrombocyte aggregation inhibition; assay type: cell-based
Procedure: (§1) The pharmacological comparison tests, which were conducted with the compounds from examples 1 and 4 in comparison with 6-oxo-PGE1, are summarized in the following table.

Thrombocyte [2] = test: Thrombocyte shape change; assay type: cell-based
Procedure: as §1

[3] = test system: Stomach (rats, trauma with ethanol); test: Cytoprotection, stomach (rats, trauma with ethanol); assay type: in vivo; details: 10 micrograms/kg
Procedure: as §1

Row | IC50 (Thrombocyte [1]) [nM] | IC50 (Thrombocyte [2]) [nM] | Compound | Cytoprotection, stomach: inhibition [3] [%]
1 | 1.7 | 10 | CC#CCC(C)[C@H](O)/C=C/[C@H]1[C@H](O)CC(=O)[C@@H]1CC(=O)CCCCC(=O)O (mixture of isomers) [Example 1, (13E)-(11R,15S,16RS)-6,9-Di-oxo-11,15-dihydroxy-16-methyl-18,18,19,19-tetradehydro-13-prostenoic acid] | 
2 | 7 |  | CCCCC[C@H](O)/C=C/[C@H]1[C@H](O)CC(=O)[C@@H]1CC(=O)CCCCC(=O)O [Example 6oxoPGE1, reference compound] | 52
3 | 0.09 | 1 | CCC#CC[C@H](C)[C@H](O)C#C[C@H]1[C@H](O)CC(=O)[C@@H]1CC(=O)CCCCC(=O)O [Example 4, (11R,15S,16S)-6,9-di-oxo-11,15-dihydroxy-16,20-dimethyl-13,14,18,18,19,19-hexadehydroxy-13-prostenoic acid] | 
